Patent US20260217701A1, “SELECTIVE BET INHIBITORS AND USES THEREOF” (Tay Therapeutics Limited, priority 2022, published 2026)
Values joined by “and” are separate entries in the source; they are usually repeats but may differ in a detail not shown here. Identical values can stand only once. “Also recorded” adds a separate entry of the source. Like-named read-outs stand apart in the source and are kept apart here.

Assays:
[1] = SLE (lupus) model: body weight; format: in vivo, MRL/MpJ-Faslpr mice
Method: Female MRL/MpJ-Faslpr mice (The Jackson Laboratory) were used to assess the efficacy of Compound A in treating lupus. Starting when animals were 10 weeks of age, protein concentration in urine was measured using urine dipsticks.
At the start of the study, each group in the study had two animals that were 9 weeks old, and all others were 10 weeks old. Dosing of all animals with the test compounds began when the older animals were 11 weeks old. […] […] Dosing was at a consistent time each dosing day throughout the study.
Compound A may be formulated as illustrated in Experimental Method A (see Table 2E.). […] A stock solution of Compound A in DMSO (stock solution concentration of Compound A of 40 mg/mL) was prepared and aliquots for weekly preparations were frozen at −20° C. On each preparation day, a stock solution aliquot was thawed and diluted with other vehicle components to the desired concentration. Formulated Compound A and vehicle were at room temperature for dosing.
The study began when the older animals were 11 weeks old, and concluded when the older animals were 19 weeks old. Body weight was recorded once a week, with the exception of two weight measurements taken the first week of the study (when the older animals were 11 weeks old). Proteinuria was measured in the urine of animals with urine dipsticks once a week, starting when the older animals were 10 weeks old. […] Blood samples were taken retro-orbitally at the start of the study to establish a baseline (15 animals, 3 per group), and when the older animals were 16 weeks (all animals) and when animals were 19 weeks (all animals) at the conclusion of the study. Blood urea nitrogen (BUN) was measured in all animals at study termination in blood samples. After blood collection, animals were euthanized, perfused with PBS, and the left kidneys were collected and weighed and fixed in 10% buffered formalin. Left kidneys were then processed to a formalin-fixed, paraffin-embedded (FFPE) block, and histology was analyzed in Periodic Acid-Schiff-stained sections (1 section per slide), using the criteria described in Alperovich et al., Lupus, 16:18-24 (2007). Right kidneys were weighed and snap-frozen at −80° C. Spleens were also collected and weighed. SLE in animals treated with a BET inhibitor and vehicle.

IL-22 = IL-22 release from activated human PBMCs (ELISA); format: cell-based; conditions: for Percent Inhibition Relative to Control (IL-22): Donors 1-6, two values per donor; for IC50: Homo sapiens, PBMC
Method: Human PBMCs used to analyze inhibition of CXCL10 were collected from 8 donors, PBMCs used to analyze inhibition of IL-17A were collected from 7 donors, and PBMCs used to analyze inhibition of IL-22 were collected from 6 donors. Compounds were serially diluted in 10 mM DMSO and further diluted in assay media to 100× the required final concentration, of which 2 μL was added to the specified well. […] The cell culture supernatant was collected and levels of IL-17A and IL-22 in the supernatant were assessed by ELISA (Invitrogen).

[2] = test system: Col1a1, TGB-b1, MCP-1, IL-1b, IL-6, IL-17, TNF-α, Timp1; experiment: UUO study: tissue RNA levels of biomarkers; format: in vivo, rats
Text: Tables 29A-29B and FIGS. 28A-28B show tissue RNA levels of various biomarkers (Col1a1, TGB-b1, MCP-1, IL-1b, IL-6, IL-17, TNF-α, and Timp1) in sham rats (black bar in FIG. 28A; square shape in FIG. 28B), UUO rats treated with vehicle (grey bar in FIG. 28A; circle shape in FIG. 28B), and UUO rats treated with Compound A (white bar in FIG. 28A; triangle shape in FIG. 28B). […] FIG. 28C further illustrates gene expression levels of Col1a1, TGB-b1, IL-1b, IL-17, MCP-1, and IL-6 relative to the vehicle control. […] To place this reduction in context, IL-6 is said to be a significant contributor to a continued inflammatory response in certain nephritis conditions.

[3] = UUO rats + Compound A, N=8, relative to UUO + Vehicle = 1.00
[4] = UUO rats, tissue, Compound A 10mg/kg QD, individual animals, 10 mg/kg

SMILES: Cn1cc(-c2ccccc2)c(-c2cn(C)c(=O)c3[nH]c(-c4cnn(C(F)(F)F)c4)cc23)cc1=O [Compound A, 6-methyl-4-(1-methyl-2-oxo-5-phenyl-1,2-dihydropyridin-4-yl)-2-(1-(trifluoromethyl)-1H-pyrazol-4-yl)-1,6-dihydro-7H-pyrrolo[2,3-c]pyridin-7-one]
- Relative end body weight (% of Week 11) ± SEM ([1]; 1 mg/kg): 114.5% ± 1.5%
- Weight gain relative to control groups ([1]; 1 mg/kg and 10 mg/kg): improved weight gains relative to the control groups
- Relative end body weight (% of Week 11) ± SEM ([1]; 3 mg/kg): 110.7% ± 2.1%
- Relative end body weight (% of Week 11) ± SEM ([1]; 10 mg/kg): 114.4% ± 1.6%
- Mean Body Weight ([1]; Compound A 1 mg/kg PO QD, Week 11): 35.2 g
- Mean Body Weight ([1]; Compound A 1 mg/kg PO QD, Week 12): 36.4 g
- Mean Body Weight ([1]; Compound A 1 mg/kg PO QD, Week 13): 37.6 g
- Mean Body Weight ([1]; Compound A 1 mg/kg PO QD, Week 14): 38.5 g
- Mean Body Weight ([1]; Compound A 1 mg/kg PO QD, Week 15): 38.9 g
- Mean Body Weight ([1]; Compound A 1 mg/kg PO QD, Week 16): 40.0 g
- Mean Body Weight ([1]; Compound A 1 mg/kg PO QD, Week 17): 39.5 g
- Mean Body Weight ([1]; Compound A 1 mg/kg PO QD, Week 18): 39.7 g
- Mean Body Weight ([1]; Compound A 1 mg/kg PO QD, Week 19): 40.2 g
- Mean Body Weight ([1]; Compound A 3 mg/kg PO QD, Week 11): 35.0 g
- Mean Body Weight ([1]; Compound A 3 mg/kg PO QD, Week 12): 35.0 g
- Mean Body Weight ([1]; Compound A 3 mg/kg PO QD, Week 13): 36.5 g
- Mean Body Weight ([1]; Compound A 3 mg/kg PO QD, Week 14): 37.4 g
- Mean Body Weight ([1]; Compound A 3 mg/kg PO QD, Week 15): 37.9 g
- Mean Body Weight ([1]; Compound A 3 mg/kg PO QD, Week 16): 38.7 g
- Mean Body Weight ([1]; Compound A 3 mg/kg PO QD, Week 17): 38.6 g
- Mean Body Weight ([1]; Compound A 3 mg/kg PO QD, Week 18): 38.1 g
- Mean Body Weight ([1]; Compound A 3 mg/kg PO QD, Week 19): 38.6 g
- Mean Body Weight ([1]; Compound A 10 mg/kg PO QD, Week 11): 35.1 g
- Mean Body Weight ([1]; Compound A 10 mg/kg PO QD, Week 12): 35.6 g
- Mean Body Weight ([1]; Compound A 10 mg/kg PO QD, Week 13): 37.1 g
- Mean Body Weight ([1]; Compound A 10 mg/kg PO QD, Week 14): 37.8 g
- Mean Body Weight ([1]; Compound A 10 mg/kg PO QD, Week 15): 38.8 g
- Mean Body Weight ([1]; Compound A 10 mg/kg PO QD, Week 16): 39.3 g
- Mean Body Weight ([1]; Compound A 10 mg/kg PO QD, Week 17): 39.3 g
- Mean Body Weight ([1]; Compound A 10 mg/kg PO QD, Week 18): 39.4 g
- Mean Body Weight ([1]; Compound A 10 mg/kg PO QD, Week 19): 39.9 g
- potency against IL-22 relative to CXCL10 (IL-22): about 17,000 fold
- Biomarker selectivity (IL-22 vs. CXCL 10) (IL-22; Average preliminary biomarker assay): 5178 Fold
- Percent Inhibition Relative to Control (IL-22) (IL-22; Compound Conc. 0.000137174 μM): 36.49% and 20.77% and 20.31% and 15% and 13.22% and 40.62% and 42.44% and −18.99% and 2.10% and 20.38% and 35.83% and 13.68%
- Percent Inhibition Relative to Control (IL-22) (IL-22; Compound Conc. 0.000411523 μM): 27.24% and 13.07% and 35.55% and 45.22% and 56.28% and 11.33* Percent and 49.71% and 35.72% and 28.88% and 47.8% and 62.34% and 36.26%
- Percent Inhibition Relative to Control (IL-22) (IL-22; Compound Conc. 0.001234568 μM): 58.12% and 42.53% and 46.04% and 55.94% and 57.50% and 65.37% and 75.65% and 47.36% and 70.12% and 62.59% and 69.46% and 42.31%
- Percent Inhibition Relative to Control (IL-22) (IL-22; Compound Conc. 0.003703704 μM): 71.96% and 57.94% and 67.89% and 62.44%
- Percent Inhibition Relative to Control (IL-22) (IL-22; Compound Conc. 0.011111111 μM): 52.73% and 45.71% and 72.33% and 61.13% and 48.74% and 54.26% and 71.04% and 74.68% and 76.83% and 75.01% and 72.99% and 61.33%
- Percent Inhibition Relative to Control (IL-22) (IL-22; Compound Conc. 0.033333333 μM): 59.22% and 62.46% and 72.37% and 75.81% and 66.02% and 52.09% and 58.24% and 79.61% and 59.59% and 77.99% and 81.27% and 61.98%
- Percent Inhibition Relative to Control (IL-22) (IL-22; Compound Conc. 0.1 μM): 72.76% and 68.86% and 83.13% and 82.57% and 67.92% and 74.39% and 71.46% and 84.71% and 87.61% and 80.76% and 81.88% and 60.98%
- Percent Inhibition Relative to Control (IL-22) (IL-22; Compound Conc. 1.52416E−05 μM): −4.73% and 3.62% and −2.47% and −6.99% and −5.22% and 11.96% and 21.53% and −30.35% and −52.69% and −14.1* Percent and −16.32* Percent and −0.25%
- Percent Inhibition Relative to Control (IL-22) (IL-22; Compound Conc. 4.57247E−05 μM): −1.30% and −19.44% and 7.09% and −4.72% and −19.37% and 12.73% and 33.63% and −8.80% and 13.17% and 6.1% and 16.75% and −8.17%
- IC50 (IL-22; Average preliminary biomarker assay, read-out: IL-22 IC50 Mean): 0.2 nM
- IC50 (IL-22; Preliminary biomarker assay, Test Subject 1, read-out: IL-22 IC50): 0.2 nM
- IC50 (IL-22; Preliminary biomarker assay, Test Subject 2, read-out: IL-22 IC50): 0.1 nM
- IC50 (IL-22; Preliminary biomarker assay, Test Subject 3, read-out: IL-22 IC50): 0.3 nM
- IC50 (IL-22; ELISA, read-out: Selectivity (IC50) IL-22): 0.214 nM
- IC50, inhibition of release of IL-22 (IL-22; human PBMCs, 72 hours): sub-nanomolar
- Col1a1 RNA level, Mean ± SEM [2, 3]: 0.39 ± 0.04
- IL-1b RNA level, Mean ± SEM [2, 3]: 0.31 ± 0.03
- IL-6 RNA level, Mean ± SEM [2, 3]: 0.11 ± 0.02
- IL-17 RNA level, Mean ± SEM [2, 3]: 0.35 ± 0.07
- MCP-1 RNA level, Mean ± SEM [2, 3]: 0.33 ± 0.05
- TGF-b1 RNA level, Mean ± SEM [2, 3]: 0.52 ± 0.05
- TNF-a RNA level, Mean ± SEM [2, 3]: 1.00 ± 0.11
- Timp1 RNA level, Mean ± SEM [2, 3]: 0.54 ± 0.09
- Col1a1 RNA level, Normalized Fold Change [2, 4]: 0.51 and 0.31 and 0.19 and 0.50 (2×) and 0.40 and 0.34 and 0.41
- IL-1b RNA level, Normalized Fold Change [2, 4]: 0.37 and 0.28 and 0.24 (3×) and 0.45 and 0.23 and 0.40
- IL-6 RNA level, Normalized Fold Change [2, 4]: 0.11 (2×) and 0.09 and 0.04 and 0.14 and 0.18 and 0.13 and 0.05
- IL-17 RNA level, Normalized Fold Change [2, 4]: 0.37 and 0.14 and 0.26 and 0.51 and 0.12 and 0.45 and 0.72 and 0.20
- MCP-1 RNA level, Normalized Fold Change [2, 4]: 0.48 and 0.24 and 0.18 and 0.34 and 0.44 and 0.25 and 0.50 and 0.20
- TGF-b1 RNA level, Normalized Fold Change [2, 4]: 0.71 and 0.42 and 0.28 and 0.58 and 0.64 (2×) and 0.40 and 0.50
- TNF-a RNA level, Normalized Fold Change [2, 4]: 1.50 and 1.16 and 1.00 and 0.79 and 1.05 and 0.62 and 1.20 and 0.64
- Timp1 RNA level, Normalized Fold Change [2, 4]: 0.83 and 0.41 and 0.36 and 0.72 (2×) and 0.66 and 0.09 and 0.52
- Tissue RNA level of TNF-α ([2]; UUO rats, 10 mg/kg): no observable effect
- Tissue RNA levels of Col1a1, TGB-b1, MCP-1, IL-1b, IL-6, IL-17, Timp1 ([2]; UUO rats, 10 mg/kg PO QD, vs vehicle, 10 mg/kg): reduced levels of Colla1, TGB-b1, MCP-1, IL-1b, IL-6, IL-17, and Timp1; also recorded: markedly lower
